# Measured values as given in patent publication US9498466B2, “Pyrrole inhibitors of S-nitrosoglutathione reductase as therapeutic agents” (Nivalis Therapeutics, Inc., priority 2008, dated 2016).
# Tests used:
# OVA sensitized mice = assay: GSNOR inhibition assay in an in vivo animal model: OVA mouse model of asthma, methacholine challenge, Penh; conditions: 1 mg/kg, 10 mg/kg or 30 mg/kg intravenously at 24 hours prior
# Method: In an effort to determine if similar observations would manifest if GSNOR were inhibited pharmacologically by a GSNOR inhibitor, an OVA mouse model (i.e., the wild-type model of Que et al.) was used. In this study, OVA sensitized mice were administered 1 mg/kg, 10 mg/kg or 30 mg/kg of Compound 1 intravenously at 24 hours prior to being placed in a whole body plethysmograph (Buxco Research Systems, Wilmington, N.C.) and provided with fresh air.
# Subject animals were then challenged with an aerosol of increasing dosages of the bronchoconstrictive agent methacholine, a pharmacologic agent commonly used in determining the degree of bronchial hyper-reactivity in experimental subjects. In this study mice were exposed to an increasing concentration of methacholine, each dose being presented for 3 minutes, during which time readings were taken. Doses of methacholine were 0 mg/ml, 5 mg/ml, 20 mg/ml, and 50 mg/ml. The degree of bronchial hyper-reactivity was measured as the ‘Enhanced Pause’ (Penh), a unit-less index of airway hyper-reactivity (Dohi et al., Lab Invest. 79(12):1559-1571, 1999).
# [1] = tested on: mouse model of ovalbumin (OVA)-induced asthma; assay: Experimental asthma model: pulmonary function testing (Penh) after MCh challenge; type: in vivo; conditions: read-out: area under the curve (AUC) for Penh response reported as percent of vehicle control
# Method: A mouse model of ovalbumin (OVA)-induced asthma was used to screen GSNOR inhibitors for efficacy against methacholine (MCh)-induced bronchoconstriction/airway hyper-reactivity. […] Efficacy of GSNOR inhibitors were assessed using a prophylactic protocol in which GSNOR inhibitors were administered prior to challenge with MCh. Bronchoconstriction in response to challenge with increasing doses of MCh was assessed using whole body plethysmography (Penh; Buxco). […] The effect of GSNOR inhibitors were compared to vehicles and to Combivent (inhaled; IH) as the positive control. […]
# In vivo airway responsiveness to methacholine was measured 24 h after the last OVA challenge in conscious, freely moving, spontaneously breathing mice with whole body plethysmography using a Buxco chamber (Wilmington, N.C.). […] The degree of bronchoconstriction was expressed as enhanced pause (Penh), a calculated dimensionless value, which correlates with the measurement of airway resistance, impedance, and intrapleural pressure in the same mouse. Penh readings were taken and averaged for 4 min. after each nebulization challenge. Penh was calculated as follows: Penh enh=[(Te/Tr−1)×(PEF/PIF)], where Te is expiration time, Tr is relaxation time, PEF is peak expiratory flow, and PIF is peak inspiratory flow×0.67 coefficient. […]
compound,measurement,setting,value
"Cc1cc(C(N)=O)ccc1-n1c(CCC(=O)O)ccc1-c1ccc(-n2ccnc2)cc1 [Compound 1, 3-(5-(4-(1H-imidazol-1-yl)phenyl)-1-(4-carbamoyl-2-methylphenyl)-1H-pyrrol-2-yl)propanoic acid]",broncho-constrictive responses to methacholine (Penh) compared with vehicle-only dosed animals,OVA sensitized mice,lower broncho-constrictive responses
"Cc1cc(C(N)=O)ccc1-n1c(CCC(=O)O)ccc1-c1ccc(Br)cc1 [Compound 7, 3-(5-(4-bromophenyl)-1-(4-carbamoyl-2-methylphenyl)-1H-pyrrol-2-yl)propanoic acid]",response vs control in vivo at 0.1 mg/kg,[1]; single IV dose of 0.1 mg/kg at 24 h prior to MCh,56.1 ± 2.2%
same,response vs control in vivo at 1 mg/kg,[1]; single IV dose of 1 mg/kg at 24 h prior to MCh,50.4 ± 3.7%
